According to PMC5515844, “A new Prenylated Flavonoid induces G0/G1 arrest and apoptosis through p38/JNK MAPK pathways in Human Hepatocellular Carcinoma cells” (Scientific Reports, 2017):

Legend:
Hep3B = assay: MTT cytotoxicity assay; format: cell-based, human; conditions: Homo sapiens, 48 h, mean ± SD
Experimental: (§1) HepG2 and Hep3B (human hepatoma cells), Bcap37 and MCF-7 (human breast cancer cells), TE-1 (human esophageal cancer cells), A549 (human lung carcinoma cells), U251 and U87 (human glioma cells), were cultured in Dulbecco’s modified Eagle’s medium (DMEM) supplemented with 10% fetal bovine serum (FBS) and 1% penicillin/streptomycin (10000 U/mL penicillin, 10000 μg/ml streptomycin). SH-SY5Y (human neuroblastoma cells), LO2 (human normal liver cell) were grown in RPMI 1640 containing 10% FBS and 100 µg/ml penicillin, 100 µg/ml streptomycin. HepG2, Hep3B, MCF-7, TE-1, A549, U87, U251 and SHSY5Y cells were obtained from the American Type Culture Collection (Manassas, VA, USA). Bcap37 and LO2 cells were purchased from the Cell Bank of Chinese Academy of Sciences (Shanghai, China). All cells were incubated in a humidified atmosphere containing 5% CO2 at 37 °C.
(§2) Cells seeded in 96-well plates with 5 × 10^3 cells/well were adhered overnight and incubated with vehicle control (DMSO) or diverse concentrations of compounds for 48 h. After treatment, 20 μL of MTT (5 mg/mL) was added to each well and incubated for another 4 h at 37 °C. Then, 150 μL of DMSO/well was appended after removed the supernatant to dissolve the formed purple formazan crystals and the color absorbance was measured at 490 nm using a microplate reader (Molecular Devices, Thermo, CA, USA). The inhibition rate (%) was calculated as (A490(control) − A490(drug groups))/(A490(control) − A490(blank)) × 100 and the value of IC50 (the concentration that caused 50% inhibition of cell viability) was determined using SPSS 20.0. This experiment was measured in triplicate, independently.

HepG2 = assay: MTT cytotoxicity assay; format: cell-based, human; conditions: Homo sapiens, HepG2; MTT, 48 h, mean ± SD
Experimental: as §1, §2

A549 = assay: MTT cytotoxicity assay; format: cell-based; conditions: Homo sapiens, 48 h, mean ± SD
Experimental: as §1, §2

MCF-7 = assay: MTT cytotoxicity assay; format: cell-based; conditions: Homo sapiens, MCF7, 48 h, mean ± SD
Experimental: as §1, §2

LO2 = assay: MTT cytotoxicity assay, normal hepatic cells; format: cell-based; conditions: mean ± SD
Experimental: as §1, §2

Hep3B cells [1] = assay: Clonogenic assay; format: cell-based, human; conditions: two weeks, dose-dependent
Experimental: (§3) The clonogenic assay was performed to appraise the effect of daphnegiravone D on cell proliferation. Hep3B (800 cells/well) or HepG2 (4,000 cells/well) cells were seeded in 6-well plates in 2 mL complete media overnight and attachment cells were incubated with various concentrations of daphnegiravone D for two weeks. Then, cells were washed twice with PBS carefully and fixed with 4.0% paraformaldehyde for 30 min, and stained with 0.5% crystal violet at room temperature for 30 min. Colonies containing exceeding 50 cells/colony were counted under microscope. All experiments were independently performed three times.

HepG2 cells [2] = assay: Clonogenic assay; format: cell-based, human; conditions: HepG2, two weeks, dose-dependent
Experimental: as §3

Hep3B cells [3] = assay: Cell cycle analysis, PI staining, flow cytometry; format: cell-based, human; conditions: different concentrations, 24 and 48 h
Experimental: (§4) Flow cytometry was used to determine the cell cycle effects of daphnegiravone D on Hep3B and HepG2 cells. Cells were seeded (2 × 10^5 cells/well) into six-well plates with complete DMEM medium for 24 h and treated with various concentrations of daphnegiravone D for 24 and 48 h. Cells were harvested after treatment, washed with cold PBS, and fixed with 70% ethanol at 4 °C overnight. Then, resuspended cell pellets in staining buffer, blended in RNase A and PI staining for 30 min at 37 °C. Cell cycle phase was investigated using a FACSCalibur flow cytometer (BD Biosciences, New Jersey, USA). The results were analyzed with FlowJo software (v7.6.5, Tree Star, Inc.).

HepG2 cells [4] = assay: Cell cycle analysis, PI staining, flow cytometry; format: cell-based, human; conditions: HepG2, different concentrations, 24 and 48 h
Experimental: as §4

Hep3B cells [5] = assay: Annexin V-FITC/PI apoptosis detection; format: cell-based, human; conditions: 0.5–2.0 μM, 48 h, dose-dependent
Experimental: (§5) An annexin-V FITC apoptosis detection Kit was used to determine the apoptosis effect induced by daphnegiravone D according to the manufacturer’s instructions (BD Biosciences, CA, USA). Briefly, Hep3B and HepG2 cells were plated in 6-well plates (2 × 10^5/well) and incubated overnight. Cells were harvested and washed with PBS by centrifugation after treatment with different concentrations of daphnegiravone D for 48 h. Then, cells were resuspended in 500 μL binding buffer and staining with Annexin V-FITC (10 μL) and propidium iodide (5 μL) at room temperature in the dark for 10 min. Thereafter, cells were analyzed by flow cytometry within 1 h after staining. 10,000 cells were acquired for each sample and data were analyzed by Cell Quest Pro software (BD Biosciences, New Jersey, USA).

HepG2 cells [6] = assay: Annexin V-FITC/PI apoptosis detection; format: cell-based, human; conditions: HepG2, 2.5–10.0 μM, 48 h, dose-dependent
Experimental: as §5

[7] = test system: cyclin D1, cyclin E1, CDK2, CDK4, cleaved-caspase 3, PARP, p38, JNK, ERK in Hep3B cells; assay: Western blotting analysis; format: cell-based, human
Experimental: (§6) Cells that after treatment were harvested and lysed by radio-immunoprecipitation assay (RIPA) buffer containing protease inhibitor (PMSF, 1 mM) on ice for 30 min. Cells lysates were centrifuged at 12,000 g for 15 min at 4 °C and following the protein concentration in the supernatant was determined using a BCA protein assay kit (Thermo Scientific, Waltham, USA), then cell extracts were added SDS-PAGE sample loading buffer and denatured at 100 °C for 10 min. Equal amount of protein (30 μg) were separated on a 8–15% SDS-PAGE and transferred onto PVDF membranes (0.2 μm, Millipore) using an electroblotting apparatus (Bio-Rad). The membranes were blocked with 5% milk in PBS-T (PBS containing 0.1% Tween 20) for 2 h at room temperature and incubated with primary antibodies at 4 °C overnight. After washed three times with PBS-T, the membranes were incubated with horseradish peroxi-dase (HRP)-conjugated secondary antibody (1:5,000) at room temperature for 2 h, then washed again, and the immunoreactive bands were detected using ECL reagents (ThermoFisher, Waltham, MA).

[8] = test system: cyclin D1, cyclin E1, CDK2, CDK4, cleaved-caspase 3, PARP, p38, JNK, ERK in HepG2 cells; assay: Western blotting analysis; format: cell-based, human
Experimental: as §6

SMILES: COc1c(-c2ccc(O)c(CC=C(C)C)c2)oc2c(CC=C(C)C)c(O)cc(O)c2c1=O [Compound 1, daphnegiravone D]
- IC50 (Hep3B): 1.63 ± 0.56 µM
- IC50 (HepG2): 9.89 ± 1.02 µM
- IC50 (A549): 21.8 ± 1.34 µM
- IC50 (MCF-7): 22.3 ± 2.18 µM
- IC50 (LO2; 48 h, normal human hepatic cells): 45.1 ± 3.09 µM
- IC50 (LO2; Homo sapiens, L02, 48 h): ~45 µM
- colonies (Hep3B cells [1]): dramatically reduced
- colonies (HepG2 cells [2]): dramatically reduced
- cell cycle arrest (Hep3B cells [3]): significantly arrested at G0/G1 phase
- cell cycle arrest (HepG2 cells [4]): significantly arrested at G0/G1 phase
- AV+PI− and AV+PI+ cells (apoptosis) (Hep3B cells [5]): increased dramatically
- AV+PI− and AV+PI+ cells (apoptosis) (HepG2 cells [6]): increased dramatically
- expression of cyclin D1 [7]: not significantly changed
- phosphorylated status of ERK [7]: no distinct change
- phosphorylation level of p38 ([7]; 48 h): markedly increased
- levels of cleaved-caspase 3 and -PARP ([7]; 48 h, dose-dependent): increased
- level of phosphorylated JNK ([7]; dose-dependent): dramatically reduced
- levels of cyclin E1, CDK2 and CDK4 ([7]; dose-dependent): decreased
- expression of cyclin D1 ([8]; HepG2): not significantly changed
- phosphorylated status of ERK ([8]; HepG2): no distinct change
- phosphorylation level of p38 ([8]; HepG2, 48 h): markedly increased
- levels of cleaved-caspase 3 and -PARP ([8]; HepG2, 48 h, dose-dependent): increased
- level of phosphorylated JNK ([8]; HepG2, dose-dependent): dramatically reduced
- levels of cyclin E1, CDK2 and CDK4 ([8]; HepG2, dose-dependent): decreased
